Each structure is given as a SMILES string. In brackets after ≈: the same amount, converted by molar mass.

For data set [1] the following is noted: after 6 months at room temperature; cited from earlier work.
Data set [2] in a line: Solubility of SNAP in silicone oil. The class given is physicochemical. Conditions: oil or lipid, thermodynamic from solid. On the procedure: Leaching of SNAP from the silicone tubing was repeated during the oil swelling process as well, to ensure large amounts of SNAP were not lost during the 3-day swelling period. Sections of SNAP impregnated tubing were massed and placed in 4 mL of silicone oil. The absorbance spectra of silicone oil were taken to ensure no interference would be seen between the SNAP maxima and the oil. […] Therefore, the same calibration curve of SNAP in PBS-EDTA was used for determining SNAP concentration in the silicone oil. Solubility of SNAP in silicone oil was determined by adding 10 mg/mL and put on a vortex mixer for 2 min. The suspension was then centrifuged (10 min, 3000 rpm), and a 1 mL sample of the silicone oil was taken for UV vis spectroscopy.

As for `CC(=O)N[C@@H](C(=O)O)C(C)(C)SN=O` (racemic) [SNAP, S-nitroso-N-acetylpenicillamine], the “SNAP activity retained within a polymer matrix” value in data set [1] was 87%. Further, the solubility at 2 min in data set [2] was 0.4 µg/mL (≈ 1.82 µM).

The solubility is the dissolved amount per volume that the medium holds. A high value points to much dissolved substance.

Source of the values: US12016974B2, “Nitric oxide releasing surfaces for decreased fouling, thrombosis, and infection of medical devices” (priority 2016, dated 2024).
